The target of the assay is T1, BTK (Homo sapiens, UniProt Q06187).
T1 construct: endogenous in cells; host or cells: TMD-8 cells
Description: BTK degradation in TMD-8 cells, HTRF assay after 6 h treatment. The class given is cell-based. As to conditions: for DC50: IC50 (DC50) of BTK degradation; for Dmax: TMD8, maximum percentage of inhibition (degradation). Put shortly: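 TMD-8 cells treated for 6 h with 8 compound doses in 6-fold dilution steps from a 1 mM 500× DMSO stock (0.2% DMSO), then lysed 30 min at room temperature. BTK in lysate detected by HTRF (665/620 nm) after overnight antibody incubation; DC50 from four-parameter curve fit.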
Background: Time-resolved FRET reads energy transfer from a long-lived donor to a nearby acceptor.

The structures appear in SMILES notation.

For orientation: DC50 means the midpoint of the concentration-degradation curve. Low readings indicate degradation at low concentration, high ones degradation only at high concentration. The term Dmax denotes the largest share of the target that was removed. Low readings indicate shallow degradation, high ones deep degradation.

T1 sequence (Q06187 whole entry): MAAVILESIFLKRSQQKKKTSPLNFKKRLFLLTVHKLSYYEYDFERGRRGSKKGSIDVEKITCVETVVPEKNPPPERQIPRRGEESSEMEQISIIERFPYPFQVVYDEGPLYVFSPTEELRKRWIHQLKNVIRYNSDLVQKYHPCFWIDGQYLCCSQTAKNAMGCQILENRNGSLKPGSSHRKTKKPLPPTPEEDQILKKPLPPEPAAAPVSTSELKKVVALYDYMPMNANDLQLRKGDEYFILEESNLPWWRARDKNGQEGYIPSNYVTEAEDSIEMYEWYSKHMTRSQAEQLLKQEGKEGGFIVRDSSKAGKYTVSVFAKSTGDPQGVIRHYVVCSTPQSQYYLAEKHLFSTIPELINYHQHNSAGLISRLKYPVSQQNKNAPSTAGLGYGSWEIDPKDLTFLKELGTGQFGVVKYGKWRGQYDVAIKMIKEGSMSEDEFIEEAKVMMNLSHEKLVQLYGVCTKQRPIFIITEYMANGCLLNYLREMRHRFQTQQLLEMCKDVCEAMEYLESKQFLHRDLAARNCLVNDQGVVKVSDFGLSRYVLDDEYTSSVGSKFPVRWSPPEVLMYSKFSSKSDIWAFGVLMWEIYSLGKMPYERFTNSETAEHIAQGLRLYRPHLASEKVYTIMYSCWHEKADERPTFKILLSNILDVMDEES

Compound `CC(C)(C)c1noc(C(=O)NCc2ccc(-c3n[nH]c4ncc(-c5ccc(C6CCN(CC7CCN(c8ccc(N9CCC(=O)NC9=O)cc8)CC7)CC6)cc5)cc34)cc2F)n1` [Example 10, 3-(tert-butyl)-N-(4-(5-(4-(1-((1-(4-(2,4-dioxotetrahydropyrimidin-1(2H)-yl)phenyl)piperidin-4-yl)methyl)piperidin-4-yl)phenyl)-1H-pyrazolo[3,4-b]pyridin-3-yl)-2-fluorobenzyl)-1,2,4-oxadiazole-5-carboxamide] yielded a DC50 of 10.8 nM and a Dmax of 97.1%.

The compound `Cc1cc(-c2n[nH]c3ncc(-c4ccc(N5CCC(COc6ccc(N7CCC(=O)NC7=O)cc6)CC5)cc4)cc23)ccc1[C@@H](C)NC(=O)c1noc(C(C)(C)C)n1` [Example 187, (R)-5-(tert-butyl)-N-(1-(4-(5-(4-(4-((4-(2,4-dioxotetrahydropyrimidin-1(2H)-yl)phenoxy)methyl)piperidin-1-yl)phenyl)-1H-pyrazolo[3,4-b]pyridin-3-yl)-2-methylphenyl)ethyl)-1,2,4-oxadiazole-3-carboxamide] returned a 50% degradation concentration (DC50) of 9.56 nM.

`Cc1cc(-c2n[nH]c3ncc(-c4ccc(N5CCN(CCc6ccc(C7CCC(=O)NC7=O)cc6)CC5)cc4)cc23)ccc1[C@@H](C)NC(=O)c1cn(C(C)(C)C)nn1` (stereo partly drawn) [Example 125, 1-(tert-butyl)-N-((1R)-1-(4-(5-(4-(4-(4-(2,6-dioxopiperidin-3-yl)phenethyl)piperazin-1-yl)phenyl)-1H-pyrazolo[3,4-b]pyridin-3-yl)-2-methylphenyl)ethyl)-1H-1,2,3-triazole-4-carboxamide]: the DC50 was 15.2 nM.

For `CC(C)(C)c1nc(C(=O)NCc2ccc(-c3n[nH]c4ncc(-c5ccc(C6CCN(CC7CCN(c8ccc(N9CCC(=O)NC9=O)cc8)CC7)CC6)cc5)cc34)cc2F)no1` [Example 15, 5-(tert-butyl)-N-(4-(5-(4-(1-((1-(4-(2,4-dioxotetrahydropyrimidin-1(2H)-yl)phenyl)piperidin-4-yl)methyl)piperidin-4-yl)phenyl)-1H-pyrazolo[3,4-b]pyridin-3-yl)-2-fluorobenzyl)-1,2,4-oxadiazole-3-carboxamide], half-maximal degradation (DC50) was put at 6.38 nM and the Dmax worked out at 94.9%.

`Cc1cc(-c2n[nH]c3ncc(-c4ccc(N5CCN(CC6CCN(c7ccc(N8CCC(=O)NC8=O)cc7F)CC6)CC5)cc4)cc23)ccc1[C@@H](C)NC(=O)c1noc(C(C)(C)C)n1` [Example 134, (R)-5-(tert-butyl)-N-(1-(4-(5-(4-(4-((1-(4-(2,4-dioxotetrahydropyrimidin-1(2H)-yl)-2-fluorophenyl)piperidin-4-yl)methyl)piperazin-1-yl)phenyl)-1H-pyrazolo[3,4-b]pyridin-3-yl)-2-methylphenyl)ethyl)-1,2,4-oxadiazole-3-carboxamide] had a half-maximal degradation concentration (DC50) of 9.96 nM.

In turn, `Cc1cc(-c2n[nH]c3ncc(-c4ccc(N5CC6CN(CCc7ccc(C8CCC(=O)NC8=O)c(C)n7)CC6C5)cn4)cc23)ccc1[C@@H](C)NC(=O)c1noc(C(C)(C)C)n1` (stereo partly drawn) [Example 189, 5-(tert-butyl)-N-((1R)-1-(4-(5-(5-(5-(2-(5-(2,6-dioxopiperidin-3-yl)-6-methylpyridin-2-yl)ethyl)hexahydropyrrolo[3,4-c]pyrrol-2(1H)-yl)pyridin-2-yl)-1H-pyrazolo[3,4-b]pyridin-3-yl)-2-methylphenyl)ethyl)-1,2,4-oxadiazole-3-carboxamide] showed a 50% degradation concentration (DC50) of 23.6 nM.

Compound `Cc1cc(-c2n[nH]c3ncc(-c4ccc(N5CCN(CC6CCN(c7ccc(N8CCC(=O)NC8=O)cn7)CC6)CC5)cc4)cc23)ccc1[C@@H](C)NC(=O)c1noc(C(C)(C)C)n1` [Example 124, (R)-5-(tert-butyl)-N-(1-(4-(5-(4-(4-((1-(5-(2,4-dioxotetrahydropyrimidin-1(2H)-yl)pyridin-2-yl)piperidin-4-yl)methyl)piperazin-1-yl)phenyl)-1H-pyrazolo[3,4-b]pyridin-3-yl)-2-methylphenyl)ethyl)-1,2,4-oxadiazole-3-carboxamide] showed a DC50 of 1.42 nM.

For the origin of these results see patent US20230322761A1, “DEGRADATION OF BRUTON'S TYROSINE KINASE (BTK) BY CONJUGATION OF BTK INHIBITORS WITH E3 LIGASE LIGAND AND METHODS OF USE” (BEIGENE, LTD., priority 2020, published 2023).
